Data: PubChem BioAssay AID1919007 (Molecular Pharmacology Branch, DTP, NCI, 2023)

Test system: A498 complex spheroids with HUVEC/MSC, growth
Test: Anticancer human tumor A498 cell line growth inhibition [AhR];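 further: seven day exposure starting three days after spheroid seeding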;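 on viability, T/C: luminescence signal used as a surrogate for viable cells; luminescence viability scaled so 100% equals DMSO vehicle wells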
Settings: for IC50: curve of first compound; for viability, T/C: stronger effect = lower value; active means viability on the fitted dose curve at most 10% of control; inactive means the rest
How it was run: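 Agents were dosed in half-log steps down from roughly clinical Cmax, or from 10 microM where Cmax was unknown, alone and with AhR antagonists. Read-out: percent test/control growth of tumor spheroids containing HUVEC and MSC stromal cells.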

[1] = second compound 0.1 µM, first compound 0.0316 µM
[2] = second compound 0.1 µM, first compound 0.1 µM
[3] = second compound 0.1 µM, first compound 0.316 µM
[4] = second compound 0.1 µM, first compound 1 µM
[5] = second compound 0.1 µM, first compound 3.16 µM
[6] = second compound 0.1 µM, first compound 10 µM
[7] = second compound 0.316 µM, first compound 0.0316 µM
[8] = second compound 0.316 µM, first compound 0.1 µM
[9] = second compound 0.316 µM, first compound 0.316 µM
[10] = second compound 0.316 µM, first compound 1 µM
[11] = second compound 0.316 µM, first compound 3.16 µM
[12] = second compound 0.316 µM, first compound 10 µM
[13] = second compound 1 µM, first compound 0.0316 µM
[14] = second compound 1 µM, first compound 0.1 µM
[15] = second compound 1 µM, first compound 0.316 µM
[16] = second compound 1 µM, first compound 1 µM
[17] = second compound 1 µM, first compound 3.16 µM
[18] = second compound 1 µM, first compound 10 µM
[19] = second compound 3.16 µM, first compound 0.0316 µM
[20] = second compound 3.16 µM, first compound 0.1 µM
[21] = second compound 3.16 µM, first compound 0.316 µM
[22] = second compound 3.16 µM, first compound 1 µM
[23] = second compound 3.16 µM, first compound 3.16 µM
[24] = second compound 3.16 µM, first compound 10 µM
[25] = second compound 10 µM, first compound 0.0316 µM
[26] = second compound 10 µM, first compound 0.1 µM
[27] = second compound 10 µM, first compound 0.316 µM
[28] = second compound 10 µM, first compound 1 µM
[29] = second compound 10 µM, first compound 3.16 µM
[30] = second compound 10 µM, first compound 10 µM

CC(C)CC(NC(=O)C(Cc1ccccc1)NC(=O)c1cnccn1)B(O)O (stereo not given) + Cc1cncc(-c2nc(NCCc3c[nH]c4ccccc34)c3ncn(C(C)C)c3n2)c1
5.08 nM: IC50 (second compound 0.316 µM)
4.75 nM: IC50 (second compound 0.1 µM)
< 0.949 nM: IC50 (second compound 10 µM)
4.69 nM: IC50 (second compound 1 µM)
inactive: viability, T/C (second compound 0.1 µM, first compound 0.000949 µM) 91% | viability, T/C (second compound 0.1 µM, first compound 0.003 µM) 79.8% | viability, T/C (second compound 0.316 µM, first compound 0.000949 µM) 95.5% | viability, T/C (second compound 0.316 µM, first compound 0.003 µM) 88.7% | viability, T/C (second compound 1 µM, first compound 0.000949 µM) 88.2% | viability, T/C (second compound 1 µM, first compound 0.003 µM) 79.1% | viability, T/C (second compound 3.16 µM, first compound 0.000949 µM) 62.5% | viability, T/C (second compound 3.16 µM, first compound 0.003 µM) 54.9%
active: viability, T/C (second compound 0.1 µM, first compound 0.00949 µM) 5.02% | viability, T/C (second compound 0.1 µM, first compound 0.03 µM) 1.12% | viability, T/C (second compound 0.1 µM, first compound 0.0949 µM) 0.37% | viability, T/C (second compound 0.1 µM, first compound 0.3 µM) 0.34% | viability, T/C (second compound 0.316 µM, first compound 0.00949 µM) 4.18% | viability, T/C (second compound 0.316 µM, first compound 0.03 µM) 1.1% | viability, T/C (second compound 0.316 µM, first compound 0.0949 µM) 0.36% | viability, T/C (second compound 0.316 µM, first compound 0.3 µM) 0.3% | viability, T/C (second compound 1 µM, first compound 0.00949 µM) 4.22% | viability, T/C (second compound 1 µM, first compound 0.03 µM) 0.83% | viability, T/C (second compound 1 µM, first compound 0.0949 µM) 0.33% | viability, T/C (second compound 1 µM, first compound 0.3 µM) 0.36% | viability, T/C (second compound 3.16 µM, first compound 0.00949 µM) 3.44% | viability, T/C (second compound 3.16 µM, first compound 0.03 µM) 0.63% | viability, T/C (second compound 3.16 µM, first compound 0.0949 µM) 0.22% | viability, T/C (second compound 3.16 µM, first compound 0.3 µM) 0.3% | viability, T/C (second compound 10 µM, first compound 0.000949 µM) 5.04% | viability, T/C (second compound 10 µM, first compound 0.003 µM) 3.31% | viability, T/C (second compound 10 µM, first compound 0.00949 µM) 0.4% | viability, T/C (second compound 10 µM, first compound 0.03 µM) 0.14% | viability, T/C (second compound 10 µM, first compound 0.0949 µM) 0.15% | viability, T/C (second compound 10 µM, first compound 0.3 µM) 0.22%
3.34 nM: IC50 (second compound 3.16 µM)

COc1cc(Nc2ncc3c(n2)-c2ccc(Cl)cc2C(c2c(F)cccc2OC)=NC3)ccc1C(=O)O + Cc1cncc(-c2nc(NCCc3c[nH]c4ccccc34)c3ncn(C(C)C)c3n2)c1
1790 nM: IC50 (second compound 0.316 µM)
active: viability, T/C [25] 4.64% | viability, T/C [26] 6.08% | viability, T/C [27] 4.95% | viability, T/C [28] 4.83% | viability, T/C [29] 4.84% | viability, T/C [30] 6.67%
inactive: viability, T/C [1] 68.9% | viability, T/C [2] 72% | viability, T/C [3] 64% | viability, T/C [4] 51.5% | viability, T/C [5] 44.2% | viability, T/C [6] 32.4% | viability, T/C [7] 71.9% | viability, T/C [8] 67.8% | viability, T/C [9] 69.6% | viability, T/C [10] 54% | viability, T/C [11] 45.3% | viability, T/C [12] 35% | viability, T/C [13] 71.2% | viability, T/C [14] 71.4% | viability, T/C [15] 62.4% | viability, T/C [16] 47.4% | viability, T/C [17] 41.4% | viability, T/C [18] 33.4% | viability, T/C [19] 56.9% | viability, T/C [20] 58% | viability, T/C [21] 52.2% | viability, T/C [22] 42.3% | viability, T/C [23] 35.3% | viability, T/C [24] 30.5%
418 nM: IC50 (second compound 3.16 µM)
< 31.6 nM: IC50 (second compound 10 µM)
1460 nM: IC50 (second compound 0.1 µM)
918 nM: IC50 (second compound 1 µM)

NS(=O)(=O)OCC1CC(n2ccc3c(NC4CCc5ccccc54)ncnc32)CC1O (stereo not given) + Cc1cncc(-c2nc(NCCc3c[nH]c4ccccc34)c3ncn(C(C)C)c3n2)c1
448 nM: IC50 (second compound 0.1 µM)
< 31.6 nM: IC50 (second compound 3.16 µM) | IC50 (second compound 10 µM)
412 nM: IC50 (second compound 0.316 µM)
244 nM: IC50 (second compound 1 µM)
active: viability, T/C [25] 1.63% | viability, T/C [26] 1.35% | viability, T/C [27] 0.89% | viability, T/C [28] 0.94% | viability, T/C [29] 0.76% | viability, T/C [30] 0.77%
inactive: viability, T/C [1] 87.5% | viability, T/C [2] 86.2% | viability, T/C [3] 55.5% | viability, T/C [4] 33.3% | viability, T/C [5] 23.7% | viability, T/C [6] 18.3% | viability, T/C [7] 89.2% | viability, T/C [8] 81.6% | viability, T/C [9] 52.1% | viability, T/C [10] 35.4% | viability, T/C [11] 22.4% | viability, T/C [12] 19.2% | viability, T/C [13] 78.3% | viability, T/C [14] 71.3% | viability, T/C [15] 41.6% | viability, T/C [16] 29.7% | viability, T/C [17] 20.3% | viability, T/C [18] 17.9% | viability, T/C [19] 19.1% | viability, T/C [20] 18.4% | viability, T/C [21] 18.8% | viability, T/C [22] 18.3% | viability, T/C [23] 15.5% | viability, T/C [24] 13.8%

O=C(C=Cc1cccc(S(=O)(=O)Nc2ccccc2)c1)NO + Cc1cncc(-c2nc(NCCc3c[nH]c4ccccc34)c3ncn(C(C)C)c3n2)c1
1120 nM: IC50 (second compound 1 µM)
119 nM: IC50 (second compound 3.16 µM)
1380 nM: IC50 (second compound 0.316 µM)
< 31.6 nM: IC50 (second compound 10 µM)
inactive: viability, T/C [1] 92.1% | viability, T/C [2] 90.3% | viability, T/C [3] 63.2% | viability, T/C [4] 54.4% | viability, T/C [5] 37.4% | viability, T/C [6] 15.1% | viability, T/C [7] 94.5% | viability, T/C [8] 88.1% | viability, T/C [9] 73.5% | viability, T/C [10] 53.8% | viability, T/C [11] 36.7% | viability, T/C [12] 13.8% | viability, T/C [13] 83.9% | viability, T/C [14] 85% | viability, T/C [15] 64.7% | viability, T/C [16] 52.4% | viability, T/C [17] 33.5% | viability, T/C [18] 14.9% | viability, T/C [19] 48.5% | viability, T/C [20] 51.9% | viability, T/C [21] 50% | viability, T/C [22] 42.5% | viability, T/C [23] 31.2% | viability, T/C [24] 11.8%
1260 nM: IC50 (second compound 0.1 µM)
active: viability, T/C [25] 4.64% | viability, T/C [26] 4.39% | viability, T/C [27] 4.66% | viability, T/C [28] 3.81% | viability, T/C [29] 2.39% | viability, T/C [30] 2.67%
